The values that follow come from patent US20080221548A1, “Eradication of Pigmentation and Scar Tissue” (priority 2005, published 2008).

The nature of assay [1]: Experiment 1: removal of tattoo pigmentation with different solutions while puncturing the skin. The format is in vivo, pig. As for the experimental part: A number of tattoos were applied to the skin of a pig. Each of the tattoos was a square having dimensions approximately 1 cm×1 cm filled with a solid blue-grey color. […] FIG. 3 is a reproduction of a photograph taken 14 days after four of these tattooed areas were treated according to the method of the invention using different types of solution. Square 1 was treated using distilled water and essentially no color reduction was observed. Square 2 was treated using a 2% aqueous solution of salicylic acid. […] Square 3 was treated using a solution containing 17% EDTA.

Assay [2] in a line: Experiment 2: treatment of tattooed squares by skin puncturing with salicylic acid rinse. In kind it is in vivo, pig. Particulars: 5% aqueous solution of salicylic acid, 10 cc/cm^2, three minutes puncturing, five squares; eighteen days later. How it is done:
A number of tattoos were applied to the skin of a pig. Each of the tattoos was a square having dimensions approximately 1 cm×1 cm filled with a solid blue-grey color. Two months after the tattoos were applied each of the five squares labeled 1 to 5 on the photograph shown in FIG. 4A was treated according to the method of the invention. The treatment for each square consisted of repeatedly puncturing the skin with the device described hereinabove for three minutes. As the machine was operated, the needles and skin surface were cyclically rinsed with a 5% aqueous solution of salicylic acid. A total of 10 cc of solution was used for each square (i.e. 10 cc/cm^2). Following this initial treatment no further treatment was applied to these five locations.

Assay [3] is described as follows: Experiment 3: treatment of a pigmented area of skin surrounding a scab by skin puncturing with salicylic acid rinse. To be noted: 5% aqueous solution of salicylic acid, ~10 cc/cm^2, ten minutes puncturing; fourteen days after treatment. In kind it is in vivo. How it is done: In FIG. 5A is shown a photograph of an area of skin on which there is a reddish-purple pigmented area surrounding brown colored scab. The pigmented area surrounding the scab was treated using the method described above by repeatedly puncturing the skin for ten minutes. During the treatment 10 cc of a 5% aqueous solution of salicylic acid (˜10 cc/cm^2) was used to clean the needles and surface of the skin. A dry bandage was placed over the treated area for a few days to keep the site clean, but no medication was applied. After this the skin was left unattended. […] Although embodiments of the invention have been described by way of illustration, it will be understood that the invention may be carried out with many variations, modifications, and adaptations, without departing from its spirit or exceeding the scope of the claims.

Structures are written as SMILES.

In the case of `O=C(O)CN(CCN(CC(=O)O)CC(=O)O)CC(=O)O` [EDTA], in assay [1] (solution containing 17% EDTA, square 3), the scar after treatment result is “did not vanish”. The compound further displayed a color reduction in assay [1] (solution containing 17% EDTA, tattoo square 3, 14 days after treatment) of 60%.

In the case of `OO` [H2O2], the reduction in color in assay [1] (H2O2, tattoo square 4, 14 days after treatment) was 40-60%.

As for `O=C(O)c1ccccc1O` [salicylic acid], the “tattoo color after treatment” value in assay [2] is on record as “all of the original blue-grey color has disappeared”. Moreover, in assay [3], the “color of the pigmented area after treatment” value is listed as “changed to a color slightly greyer than the natural skin color” and the “scar tissue after treatment” value was “gone”. Moreover, in assay [1] (2% aqueous solution of salicylic acid, 1 cm x 1 cm blue-grey tattoo square 2, 14 days after treatment plus a few days), the color reduction result is “approximately 90%”. Also, in assay [1] (2% aqueous solution of salicylic acid, square 2, a few days after the 14-day photograph), the scar after treatment entry is “vanished leaving no trace”.
